# Test results from ChEMBL document CHEMBL3853264 (Medchemcomm, 2016).
# Columns and labels:
# [1] = Drug level in human liver microsomes treated with 4-(3-chloro-4-(hydroxymethyl)phenoxy)-3-cyano-N-(5-fluoropyridin-2-yl)benzenesulfonamide; assay type: ADME
# [2] = Drug level in human hepatocytes treated with 4-(3-chloro-4-(hydroxymethyl)phenoxy)-3-cyano-N-(5-fluoropyridin-2-yl)benzenesulfonamide; assay type: ADME, cell-based, Hepatocyte
compound,measurement,setting,value
N#Cc1cc(S(=O)(=O)Nc2ccc(F)cn2)ccc1Oc1ccc(C(=O)O)c(Cl)c1,Drug metabolism,[1],Metabolite_Detected
same,Drug metabolism,[2],Metabolite_Detected
